# Measured values taken from patent US20250313535A1, “ALPHA 4 BETA 7 INTEGRIN MODULATORS AND USES THEREOF” (DICE MOLECULES SV, INC., priority 2022, published 2025).
# Like-named read-outs stand apart in the source and are kept apart here.
# Legend:
# [1] = target: α4β7 integrin (Homo sapiens (Human), UniProt P13612+P26010); experiment: Integrin Adhesion Assay: Protocol 4 (MAdCAM-coated plate, RPMI-8866 cells with stable LOF mutation of the ITGB1 gene); type: cell-based
# Procedure, shortened: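 RPMI-8866 cells with CRISPR/Cas9 knockout of ITGB1 (2×10^6/mL) were added to MAdCAM-coated wells with compound (1% DMSO) in HEPES/NaCl buffer with 1 mM MnCl2, 0.1 mM CaCl2 and 1% BSA, then incubated 1 h at 37 °C. After four washes, adherent cells were quantified by CellTiter-Glo luminescence. Percent inhibition versus DMSO and control compound was fitted to 4-parameter curves.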
# [2] = target: α4β1 integrin (Homo sapiens (Human), UniProt P05556+P13612); experiment: Integrin Adhesion Assay: Protocol 5 (VCAM-coated plate, RPMI-8866 cells with stable LOF mutation of the ITGB7 gene); type: cell-based
# Procedure, shortened: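 RPMI-8866 B cells with CRISPR/Cas9 ITGB7 knockout (clonal, verified by flow cytometry) adhered to VCAM-coated wells for 1 h at 37° C in HEPES/NaCl buffer with 1 mM MnCl2, 0.1 mM CaCl2, 1% BSA, 1% DMSO. Bound cells quantified by CellTiter-Glo luminescence after washing; % inhibition versus DMSO and control, 4-parameter fit.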
# [3] = RPMI-8866 cells with stable LOF mutation of the ITGB1 gene, read-out: Mean IC50 α4β7 KO^a
# [4] = RPMI-8866 cells with stable LOF mutation of the ITGB7 gene, read-out: Mean IC50 α4β1 KO^b
# [5] = Protocol 4, RPMI-8866 cells with LOF mutation of ITGB1, MAdCAM, read-out: Mean IC50 α4β7 KO
# [6] = Protocol 5, RPMI-8866 cells with LOF mutation of ITGB7, VCAM, read-out: Mean IC50 α4β1 KO
# Chain of α4β7 integrin (P13612 34-1032): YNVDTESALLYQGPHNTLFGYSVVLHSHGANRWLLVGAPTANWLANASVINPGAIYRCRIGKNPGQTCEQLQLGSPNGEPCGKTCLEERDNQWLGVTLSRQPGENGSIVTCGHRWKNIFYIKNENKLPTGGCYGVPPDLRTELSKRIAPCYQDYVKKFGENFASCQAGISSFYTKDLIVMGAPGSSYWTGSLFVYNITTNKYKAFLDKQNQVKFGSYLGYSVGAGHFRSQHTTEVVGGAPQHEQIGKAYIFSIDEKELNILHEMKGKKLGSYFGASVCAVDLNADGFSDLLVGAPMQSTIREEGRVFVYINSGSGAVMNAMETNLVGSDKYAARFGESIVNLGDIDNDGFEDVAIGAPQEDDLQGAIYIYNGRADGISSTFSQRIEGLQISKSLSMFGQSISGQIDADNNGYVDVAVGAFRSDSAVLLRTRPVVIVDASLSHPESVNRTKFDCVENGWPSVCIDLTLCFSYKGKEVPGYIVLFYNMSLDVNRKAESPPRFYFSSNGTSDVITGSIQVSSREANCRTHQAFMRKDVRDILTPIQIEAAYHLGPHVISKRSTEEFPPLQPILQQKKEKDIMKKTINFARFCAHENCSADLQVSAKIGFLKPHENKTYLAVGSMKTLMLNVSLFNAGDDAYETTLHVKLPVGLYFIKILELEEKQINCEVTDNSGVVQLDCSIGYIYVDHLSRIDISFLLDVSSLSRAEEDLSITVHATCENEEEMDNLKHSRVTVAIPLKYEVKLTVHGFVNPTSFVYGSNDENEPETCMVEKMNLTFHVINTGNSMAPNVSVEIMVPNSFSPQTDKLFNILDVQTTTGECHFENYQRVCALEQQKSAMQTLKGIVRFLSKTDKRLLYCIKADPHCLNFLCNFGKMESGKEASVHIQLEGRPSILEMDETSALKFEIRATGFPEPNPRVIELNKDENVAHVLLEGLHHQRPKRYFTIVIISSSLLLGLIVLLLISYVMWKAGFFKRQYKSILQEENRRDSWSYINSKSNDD
# Chain of α4β7 integrin (P26010 20-798): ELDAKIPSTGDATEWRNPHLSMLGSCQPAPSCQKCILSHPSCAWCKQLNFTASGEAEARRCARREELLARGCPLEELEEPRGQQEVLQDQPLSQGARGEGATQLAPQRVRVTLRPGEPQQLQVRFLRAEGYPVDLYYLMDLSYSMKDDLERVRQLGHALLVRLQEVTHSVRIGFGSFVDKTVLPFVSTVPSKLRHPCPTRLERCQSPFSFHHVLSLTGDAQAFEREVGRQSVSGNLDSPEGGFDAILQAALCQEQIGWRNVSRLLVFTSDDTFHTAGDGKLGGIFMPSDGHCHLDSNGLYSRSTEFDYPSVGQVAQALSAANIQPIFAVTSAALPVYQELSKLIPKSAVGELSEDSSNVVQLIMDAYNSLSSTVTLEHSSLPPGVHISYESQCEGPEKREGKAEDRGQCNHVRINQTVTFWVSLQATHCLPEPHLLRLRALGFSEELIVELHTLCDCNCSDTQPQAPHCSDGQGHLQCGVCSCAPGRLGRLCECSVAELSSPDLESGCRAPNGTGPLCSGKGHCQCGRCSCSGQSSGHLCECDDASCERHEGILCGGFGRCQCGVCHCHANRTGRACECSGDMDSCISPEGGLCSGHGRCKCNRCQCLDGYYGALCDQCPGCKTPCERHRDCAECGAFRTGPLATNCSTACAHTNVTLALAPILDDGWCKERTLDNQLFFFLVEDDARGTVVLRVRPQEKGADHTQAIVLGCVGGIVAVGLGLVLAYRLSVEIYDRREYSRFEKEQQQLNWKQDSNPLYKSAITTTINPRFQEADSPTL
# Chain of α4β1 integrin (P13612 34-1032): as the sequence (P13612 34-1032) above
# Chain of α4β1 integrin (P05556 21-798): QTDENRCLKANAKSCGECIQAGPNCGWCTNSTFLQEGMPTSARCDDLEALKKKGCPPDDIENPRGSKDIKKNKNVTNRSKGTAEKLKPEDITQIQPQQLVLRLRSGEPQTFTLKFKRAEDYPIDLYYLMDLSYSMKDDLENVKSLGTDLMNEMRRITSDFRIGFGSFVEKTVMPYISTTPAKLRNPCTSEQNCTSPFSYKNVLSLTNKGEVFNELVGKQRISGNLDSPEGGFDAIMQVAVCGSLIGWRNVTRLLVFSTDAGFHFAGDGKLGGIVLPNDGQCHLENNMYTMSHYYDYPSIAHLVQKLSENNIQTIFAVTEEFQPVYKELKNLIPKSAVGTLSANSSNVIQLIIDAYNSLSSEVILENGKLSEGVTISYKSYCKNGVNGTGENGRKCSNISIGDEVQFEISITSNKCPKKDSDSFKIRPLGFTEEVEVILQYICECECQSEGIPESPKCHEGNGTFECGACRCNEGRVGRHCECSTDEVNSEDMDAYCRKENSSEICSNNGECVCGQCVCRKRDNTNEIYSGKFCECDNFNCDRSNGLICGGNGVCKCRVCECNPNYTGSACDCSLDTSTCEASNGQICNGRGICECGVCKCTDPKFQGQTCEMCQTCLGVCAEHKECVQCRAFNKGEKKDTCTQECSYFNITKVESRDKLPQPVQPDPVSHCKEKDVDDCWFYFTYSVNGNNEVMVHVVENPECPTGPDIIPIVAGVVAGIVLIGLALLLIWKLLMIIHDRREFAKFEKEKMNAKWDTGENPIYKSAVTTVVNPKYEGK
structure (smiles),measurement,setting,value
O=C(O)[C@H](Cc1cccc2c(-c3nccc4ccc(CCCN5CCCCC5)cc34)cccc12)NC(=O)C1(C(F)(F)F)CCNCC1 [Compound 549],IC50,[1]; [3],< 10 nM
same,IC50,[2]; [4],> 1000 nM
COc1ccc(CN2CCC(C(F)(F)F)CC2)c(OC)c1-c1cccc2c(C[C@H](NC(=O)c3c(C)cccc3F)C(=O)O)cccc12 [Compound 569],IC50,[1]; [3],< 10 nM
same,IC50,[2]; [4],100 to 1000 nM
COc1ccc(CN2CCC[C@H](F)C2)c(OC)c1-c1cccc2c(C[C@H](NC(=O)c3c(C)cccc3F)C(=O)O)cccc12 [Compound 671],IC50,[1]; [3],< 10 nM
same,IC50,[2]; [4],100 to 1000 nM
O=C(O)[C@H](Cc1cccc2c(-c3nccc4ccc(CCCN5CCCCC5)cc34)cccc12)NC(=O)C1(C(F)(F)F)CCN(CC(F)(F)F)CC1 [Compound 725],IC50,[1]; [5],< 10 nM
same,IC50,[2]; [6],> 1000 nM
COc1ccc(CN2CCC(F)(F)CC2)c(OC)c1-c1cccc2c(C[C@H](NC(=O)C3(C(F)(F)F)CCN([C@H]4COC[C@@H]4F)CC3)C(=O)O)cccc12 [Compound 669],IC50,[1]; [3],< 10 nM
same,IC50,[2]; [4],> 1000 nM
COc1cccc(CCN2CCC(C)(C)CC2)c1-c1cccc2c(C[C@H](NC(=O)c3c(C)cccc3F)C(=O)O)cccc12 [Compound 1033],IC50,[1]; [5],< 10 nM
same,IC50,[2]; [6],100 to 1000 nM
COc1ccc(CN(C)C)c(C(F)(F)F)c1-c1cccc2c(C[C@H](NC(=O)C3(C(F)(F)F)CCN(CC(F)(F)F)CC3)C(=O)O)cccc12 [Compound 563],IC50,[1]; [3],< 10 nM
same,IC50,[2]; [4],100 to 1000 nM
COc1ccc(CN2CC(OC(C)(C)C)C2)c(OC)c1-c1cccc2c(C[C@H](NC(=O)C3(C(F)(F)F)CCN(CC(F)(F)F)CC3)C(=O)O)cccc12 [Compound 657],IC50,[1]; [3],< 10 nM
same,IC50,[2]; [4],> 1000 nM
COc1cccc(CCN2CCC(F)CC2)c1-c1cccc2c(C[C@H](NC(=O)c3c(C)cccc3F)C(=O)O)cccc12 [Compound 1035],IC50,[1]; [5],10 to 100 nM
same,IC50,[2]; [6],> 1000 nM
COc1cc(C(F)(F)F)cc(CCN2CCCCC2)c1-c1cccc2c(C[C@H](NC(=O)C3(C(F)(F)F)CCN(CC(F)(F)F)CC3)C(=O)O)cccc12 [Compound 741],IC50,[1]; [5],10 to 100 nM
same,IC50,[2]; [6],> 1000 nM
COc1cc(CN2CCCCC2)cnc1-c1cccc2c(C[C@H](NC(=O)c3c(C)cccc3F)C(=O)O)cccc12 [Compound 1018],IC50,[1]; [5],< 10 nM
same,IC50,[2]; [6],> 1000 nM
O=C(O)[C@H](Cc1cccc2c(-c3ncc(CN4CCCCC4)c4ccccc34)cccc12)NC(=O)C1(C(F)(F)F)CCN([C@@H]2COCC2(F)F)CC1 [Compound 578],IC50,[1]; [3],< 10 nM
same,IC50,[2]; [4],> 1000 nM
Cn1c(=O)c(-c2cccc3c(C[C@H](NC(=O)C4(C(F)(F)F)CCN(C(c5ccccc5)C(F)(F)F)CC4)C(=O)O)cccc23)c(C(F)(F)F)c2ccccc21 (some centres unmarked) [Compound 516],IC50,[1]; [3],> 1000 nM
same,IC50,[2]; [4],> 1000 nM
CCOCc1cc(CN2CCCCC2)c(-c2cccc3c(C[C@H](NC(=O)C4(C(F)(F)F)CCN(CC(F)(F)F)CC4)C(=O)O)cccc23)c(OC)c1 [Compound 751],IC50,[1]; [5],10 to 100 nM
same,IC50,[2]; [6],> 1000 nM
CCOCc1cc(OC)c(-c2cccc3c(C[C@H](NC(=O)C4(C(F)(F)F)CCN(CC(F)(F)F)CC4)C(=O)O)cccc23)c(OC)c1 [Compound 430],IC50,[1]; [3],< 10 nM
same,IC50,[2]; [4],100 to 1000 nM
O=C(O)[C@H](Cc1cccc2c(-c3ncc(CN4CC5(CC5)C4)c4ccccc34)cccc12)NC(=O)C1(C(F)(F)F)CCN(CC(F)(F)F)CC1 [Compound 887],IC50,[1]; [5],< 10 nM
same,IC50,[2]; [6],> 1000 nM
O=C(O)[C@H](Cc1cccc2c(-c3ccccc3OCCN3CCCCC3)cccc12)NC(=O)C1(C(F)(F)F)CCN(CC(F)(F)F)CC1 [Compound 749],IC50,[1]; [5],10 to 100 nM
same,IC50,[2]; [6],> 1000 nM
Cc1cc(CN2CCCCC2)cnc1-c1cccc2c(C[C@H](NC(=O)C3(C(F)(F)F)CCN(CC(F)(F)F)CC3)C(=O)O)cccc12 [Compound 880],IC50,[1]; [5],< 10 nM
same,IC50,[2]; [6],> 1000 nM
COc1ccc(CCN2CCCCC2)cc1-c1cccc2c(C[C@H](NC(=O)C3(C(F)(F)F)CCN(CC(F)(F)F)CC3)C(=O)O)cccc12 [Compound 731],IC50,[1]; [5],< 10 nM
same,IC50,[2]; [6],100 to 1000 nM
COc1cccc(CCN2CCCC(C)(C)C2)c1-c1cccc2c(C[C@H](NC(=O)C3(C(F)(F)F)CCN(CC(F)F)CC3)C(=O)O)cccc12 [Compound 984],IC50,[1]; [5],< 10 nM
same,IC50,[2]; [6],100 to 1000 nM
O=C(O)[C@H](Cc1cccc2c(-c3ncc(CN4CCCC4)c4ccccc34)cccc12)NC(=O)C1(C(F)(F)F)CCN(CC(F)F)CC1 [Compound 917],IC50,[1]; [5],< 10 nM
same,IC50,[2]; [6],100 to 1000 nM
COc1cc(CN2CCC(C(F)(F)F)CC2)cnc1-c1cccc2c(C[C@H](NC(=O)c3c(C)cccc3F)C(=O)O)cccc12 [Compound 996],IC50,[1]; [5],10 to 100 nM
same,IC50,[2]; [6],> 1000 nM
